Data on 23 molecules can be found in patent publication US20240108006A1, “PESTICIDALLY ACTIVE HETEROAROMATIC COMPOUNDS” (SYNGENTA CROP PROTECTION AG, priority 2021, published 2024).

What all share (assay type): in vivo
One experiment relates to Chilo suppressalis. Nature of the experiment: Example B1: Chilo suppressalis (striped rice stemborer), artificial diet, L2 larvae. Conditions: 144 h, application rate of 200 ppm, 6 days after infestation, read-out: control in at least one of the three categories (mortality, anti-feedant effect, or growth inhibition). How it is done:
Example B1: Chilo suppressalis (Striped Rice Stemborer)
24-well microtiter plates with artificial diet were treated with aqueous test solutions prepared from 10,000 ppm DMSO stock solutions by pipetting. After drying, the plates were infested with L2 larvae (6-8 per well). The samples were assessed for mortality, anti-feeding effect, and growth inhibition in comparison to untreated samples 6 days after infestation. Control of Chilo suppressalis by a test sample is given when at least one of the categories mortality, anti-feedant effect, and growth inhibition is higher than the untreated sample.

A further experiment has as its system Spodoptera littoralis. Nature of the experiment: Example B9: Spodoptera littoralis (Egyptian cotton leaf worm), cotton leaf discs, L1 larvae. Particulars: foliar, 72 h, application rate of 200 ppm, 3 days after infestation, read-out: control in at least one of the three categories (mortality, anti-feedant effect, or growth inhibition). The procedure:
Example B9: Spodoptera littoralis (Egyptian Cotton Leaf Worm)
Cotton leaf discs were placed onto agar in 24-well microtiter plates and sprayed with aqueous test solutions prepared from 10,000 ppm DMSO stock solutions. After drying the leaf discs were infested with five L1 larvae. The samples were assessed for mortality, anti-feeding effect, and growth inhibition in comparison to untreated samples 3 days after infestation. Control of Spodoptera littoralis by a test sample is given when at least one of the categories mortality, anti-feedant effect, and growth inhibition is higher than the untreated sample.

For a further experiment, the system named is Plutella xylostella. Nature of the experiment: Example B8: Plutella xylostella (diamond back moth), artificial diet 24-well, eggs. Particulars: 192 h, application rate of 200 ppm, 8 days after infestation, read-out: effect in at least one of the two categories (mortality or growth inhibition). The procedure:
Example B8: Plutella xylostella (Diamond Back Moth)
24-well microtiter plates with artificial diet were treated with aqueous test solutions prepared from 10,000 ppm DMSO stock solutions by pipetting. After drying, Plutella eggs were pipetted through a plastic stencil onto a gel blotting paper and the plate was closed with it. The samples were assessed for mortality and growth inhibition in comparison to untreated samples 8 days after infestation.
The following compounds gave an effect of at least 80% in at least one of the two categories (mortality or growth inhibition) at an application rate of 200 ppm: […]

SMILES strings stand for the structures. A value given as a limit tells only on which side of the number the result lay.

For `C[C@H](NC(=S)Nc1ccc(C(F)(F)F)cc1Cl)c1ncnn1-c1ncccn1` [Example P129, 1-[2-chloro-4-(trifluoromethyl)phenyl]-3-[(1S)-1-(2-pyrimidin-2-yl-1,2,4-triazol-3-yl)ethyl]thiourea], the percent control (mortality, anti-feedant effect or growth inhibition) at 200 ppm with Chilo suppressalis and in the experiment on Spodoptera littoralis was not below 80% each time. Moreover, the percent effect (mortality or growth inhibition) at 200 ppm in the experiment on Plutella xylostella was not below 80%.

Turning to `COc1cc(NC(=O)N[C@@H](C)c2ncnn2-c2ncccn2)c(Cl)cc1Br` [Example P351, 1-(4-bromo-2-chloro-5-methoxy-phenyl)-3-[(1S)-1-(2-pyrimidin-2-yl-1,2,4-triazol-3-yl)ethyl]urea], the percent control (mortality, anti-feedant effect or growth inhibition) at 200 ppm in the experiment on Chilo suppressalis and in the experiment on Spodoptera littoralis was not below 80% each time. Also, the percent effect (mortality or growth inhibition) at 200 ppm in the experiment with Plutella xylostella was not below 80%.

`C[C@H](NC(=O)Nc1cc(C(F)(F)F)ccc1Br)c1ncnn1-c1ncccn1` [Example P70, 1-[2-bromo-5-(trifluoromethyl)phenyl]-3-[(1S)-1-(2-pyrimidin-2-yl-1,2,4-triazol-3-yl)ethyl]urea]: the percent control (mortality, anti-feedant effect or growth inhibition) at 200 ppm in the experiment on Chilo suppressalis and in the experiment on Spodoptera littoralis was not below 80% each time. Further, in the experiment on Plutella xylostella, the percent effect (mortality or growth inhibition) at 200 ppm is not below 80%.

For the molecule `CC(NC(=O)Nc1cnc(C(F)(F)F)cc1Cl)c1nccnc1-n1nccn1` (stereo not shown) [Example P264, 1-[4-chloro-6-(trifluoromethyl)-3-pyridyl]-3-[1-[3-(triazol-2-yl)pyrazin-2-yl]ethyl]urea], the percent control (mortality, anti-feedant effect or growth inhibition) at 200 ppm with Chilo suppressalis and in the experiment on Spodoptera littoralis was not below 80% throughout. Also, in the experiment on Plutella xylostella, the percent effect (mortality or growth inhibition) at 200 ppm was not below 80%.

On to `C[C@H](NC(=O)Nc1ccc(Br)cc1OC(F)F)c1ncnn1-c1ccc(C#N)cn1` [Example P254, 1-[4-bromo-2-(difluoromethoxy)phenyl]-3-[(1S)-1-[2-(5-cyano-2-pyridyl)-1,2,4-triazol-3-yl]ethyl]urea], for which the percent control (mortality, anti-feedant effect or growth inhibition) at 200 ppm in the experiment on Spodoptera littoralis is not below 80%. For the same molecule, in the experiment with Plutella xylostella, the percent effect (mortality or growth inhibition) at 200 ppm is not below 80%.

Regarding `C[C@H](NC(=O)Nc1cc(Br)c(C(F)(F)F)cc1F)c1ncnn1-c1ncccn1` [Example P350, 1-[5-bromo-2-fluoro-4-(trifluoromethyl)phenyl]-3-[(1S)-1-(2-pyrimidin-2-yl-1,2,4-triazol-3-yl)ethyl]urea], the percent control (mortality, anti-feedant effect or growth inhibition) at 200 ppm in the experiment on Chilo suppressalis and in the experiment with Spodoptera littoralis was not below 80% each time.

On to `C[C@H](NC(=S)Nc1ccc(Cl)c(C(F)(F)F)c1)c1ncnn1-c1ncccn1` [Example P15, 1-[4-chloro-3-(trifluoromethyl)phenyl]-3-[(1S)-1-(2-pyrimidin-2-yl-1,2,4-triazol-3-yl)ethyl]thiourea], for which the percent control (mortality, anti-feedant effect or growth inhibition) at 200 ppm in the experiment on Chilo suppressalis and in the experiment on Spodoptera littoralis was not below 80% throughout.

As to `C[C@H](NC(=O)Nc1ccc(Cl)c(C(F)(F)F)c1)c1nccnc1-c1ncccn1` [Example P11, 1-[4-chloro-3-(trifluoromethyl)phenyl]-3-[(1S)-1-(3-pyrimidin-2-ylpyrazin-2-yl)ethyl]urea], the percent control (mortality, anti-feedant effect or growth inhibition) at 200 ppm with Spodoptera littoralis is not below 80%. The percent effect (mortality or growth inhibition) at 200 ppm in the experiment on Plutella xylostella was not below 80%.

With `C#CCOc1cc(NC(=O)N[C@@H](C)c2ncnn2-c2ncccn2)c(F)cc1Br` [Example P203, 1-(4-bromo-2-fluoro-5-prop-2-ynoxy-phenyl)-3-[(1S)-1-(2-pyrimidin-2-yl-1,2,4-triazol-3-yl)ethyl]urea], the percent control (mortality, anti-feedant effect or growth inhibition) at 200 ppm with Spodoptera littoralis is not below 80%. In addition, the percent effect (mortality or growth inhibition) at 200 ppm with Plutella xylostella is not below 80%.

On to `C[C@H](NC(=O)Nc1cc(Br)c(F)cc1F)c1ncnn1-c1ncccn1` [Example P343, 1-(5-bromo-2,4-difluoro-phenyl)-3-[(1S)-1-(2-pyrimidin-2-yl-1,2,4-triazol-3-yl)ethyl]urea], for which the percent control (mortality, anti-feedant effect or growth inhibition) at 200 ppm in the experiment on Chilo suppressalis and with Spodoptera littoralis was not below 80% throughout.

Turning to `C[C@H](NC(=O)Nc1cc(Cl)c(Br)cc1F)c1ncnn1-c1ncccn1` [Example P373, 1-(4-bromo-5-chloro-2-fluoro-phenyl)-3-[(1S)-1-(2-pyrimidin-2-yl-1,2,4-triazol-3-yl)ethyl]urea], the percent control (mortality, anti-feedant effect or growth inhibition) at 200 ppm in the experiment on Chilo suppressalis and in the experiment on Spodoptera littoralis was not below 80% in each case.

As to `C[C@H](NC(=O)Nc1cc(Cl)c(Oc2ncc(C(F)(F)F)cc2Cl)c(Cl)c1)c1ncnn1-c1ncccn1` [Example P26, 1-[3,5-dichloro-4-[[3-chloro-5-(trifluoromethyl)-2-pyridyl]oxy]phenyl]-3-[(1S)-1-(2-pyrimidin-2-yl-1,2,4-triazol-3-yl)ethyl]urea], the percent control (mortality, anti-feedant effect or growth inhibition) at 200 ppm in the experiment on Spodoptera littoralis was not below 80%. For the same molecule, the percent effect (mortality or growth inhibition) at 200 ppm in the experiment with Plutella xylostella was not below 80%.

Regarding `C[C@H](NC(=O)Nc1ccc(Cl)c(C(F)(F)F)c1)c1ncnn1-c1ncccn1` [Example P131, 1-[4-chloro-3-(trifluoromethyl)phenyl]-3-[(1S)-1-(2-pyrimidin-2-yl-1,2,4-triazol-3-yl)ethyl]urea], the percent control (mortality, anti-feedant effect or growth inhibition) at 200 ppm with Chilo suppressalis and with Spodoptera littoralis was not below 80% throughout.

For `CC(NC(=O)Nc1cnc(Br)cc1Br)c1nccnc1-c1ncccn1` (stereo not shown) [Example P242, 1-(4,6-dibromo-3-pyridyl)-3-[1-(3-pyrimidin-2-ylpyrazin-2-yl)ethyl]urea], the percent control (mortality, anti-feedant effect or growth inhibition) at 200 ppm in the experiment on Chilo suppressalis and in the experiment with Spodoptera littoralis was not below 80% throughout.

In the case of `COC(=O)c1cc2c(cc1NC(=O)N[C@@H](C)c1ncnn1-c1ncccn1)OC(F)(F)O2` [Example P369, methyl 2,2-difluoro-6-[[(1S)-1-(2-pyrimidin-2-yl-1,2,4-triazol-3-yl)ethyl]carbamoylamino]-1,3-benzodioxole-5-carboxylate], in the experiment with Spodoptera littoralis, the percent control (mortality, anti-feedant effect or growth inhibition) at 200 ppm is not below 80%. The percent effect (mortality or growth inhibition) at 200 ppm with Plutella xylostella is not below 80%.

For the molecule `C[C@H](NC(=O)Nc1cc(Cl)c(OC(F)(F)C(F)Br)cc1Cl)c1ncnn1-c1ncccn1` (stereo partly drawn) [Example P197, 1-[4-(2-bromo-1,1,2-trifluoro-ethoxy)-2,5-dichloro-phenyl]-3-[(1S)-1-(2-pyrimidin-2-yl-1,2,4-triazol-3-yl)ethyl]urea], the percent control (mortality, anti-feedant effect or growth inhibition) at 200 ppm in the experiment on Spodoptera littoralis was not below 80%.

Turning to `COc1cc(F)c(F)cc1NC(=O)N[C@@H](C)c1ncnn1-c1ncccn1` [Example P383, 1-(4,5-difluoro-2-methoxy-phenyl)-3-[(1S)-1-(2-pyrimidin-2-yl-1,2,4-triazol-3-yl)ethyl]urea], the percent control (mortality, anti-feedant effect or growth inhibition) at 200 ppm with Chilo suppressalis and in the experiment with Spodoptera littoralis was not below 80% throughout.

As to `CC(NC(=O)Nc1cnc(Br)cc1Br)c1nccnc1-n1nccn1` (stereo not shown) [Example P262, 1-(4,6-dibromo-3-pyridyl)-3-[1-[3-(triazol-2-yl)pyrazin-2-yl]ethyl]urea], in the experiment on Spodoptera littoralis, the percent control (mortality, anti-feedant effect or growth inhibition) at 200 ppm was not below 80%.

Take `CC(NC(=S)Nc1cc(C(F)(F)F)cc(C(F)(F)F)c1)c1ncnn1-c1ncccn1` (stereo not shown) [Example P3, 1-[3,5-bis(trifluoromethyl)phenyl]-3-[1-(2-pyrimidin-2-yl-1,2,4-triazol-3-yl)ethyl]thiourea]: in the experiment with Spodoptera littoralis, the percent control (mortality, anti-feedant effect or growth inhibition) at 200 ppm was not below 80%.

`Cc1cc(Cl)c(Cl)cc1NC(=O)N[C@@H](C)c1ncnn1-c1ncccn1` [Example P191, 1-(4,5-dichloro-2-methyl-phenyl)-3-[(1S)-1-(2-pyrimidin-2-yl-1,2,4-triazol-3-yl)ethyl]urea]: the percent control (mortality, anti-feedant effect or growth inhibition) at 200 ppm in the experiment with Spodoptera littoralis is not below 80%. Moreover, in the experiment on Plutella xylostella, the percent effect (mortality or growth inhibition) at 200 ppm was not below 80%.

On to `C[C@H](NC(=O)Nc1ccc(Cl)c(Cl)c1Cl)c1ncnn1-c1ncccn1` [Example P95, 1-[(1S)-1-(2-pyrimidin-2-yl-1,2,4-triazol-3-yl)ethyl]-3-(2,3,4-trichlorophenyl)urea], for which the percent control (mortality, anti-feedant effect or growth inhibition) at 200 ppm with Spodoptera littoralis was not below 80%.

With `C[C@H](NC(=O)Nc1cc2c(cc1Cl)OCO2)c1ncnn1-c1ncccn1` [Example P370, 1-(6-chloro-1,3-benzodioxol-5-yl)-3-[(1S)-1-(2-pyrimidin-2-yl-1,2,4-triazol-3-yl)ethyl]urea], the percent control (mortality, anti-feedant effect or growth inhibition) at 200 ppm with Chilo suppressalis and with Spodoptera littoralis was not below 80% each time.

For the molecule `C[C@H](NC(=O)Nc1cc(Oc2ccc(C(F)(F)F)cn2)c(Cl)cc1Cl)c1ncnn1-c1ncccn1` [Example P209, 1-[2,4-dichloro-5-[[5-(trifluoromethyl)-2-pyridyl]oxy]phenyl]-3-[(1S)-1-(2-pyrimidin-2-yl-1,2,4-triazol-3-yl)ethyl]urea], in the experiment on Spodoptera littoralis, the percent control (mortality, anti-feedant effect or growth inhibition) at 200 ppm was not below 80%. In the experiment on Plutella xylostella, the percent effect (mortality or growth inhibition) at 200 ppm is not below 80%.
